Results published in patent publication US10273517B2 (The Board of Regents of the University of Oklahoma, priority 2011, dated 2019).
Entries after “also recorded” stand apart in the source; their conditions may differ.

Legend:
[1] = test system: recombinant Comamonas testosteronan synthase (CtTS); assay: Radiolabeled sugar incorporation assay, divalent cation specificity of CtTS; type: biochemical, Comamonas testosteroni KF-1; details: 5 mM Mg2+ or 5 mM Mn2+ or 2 mM EDTA; 30 minutes at 22° C.
Protocol: Radiolabeled sugar incorporation assays were performed (30 minutes at 22° C., as described in methods) in the presence of 5 mM Mg^2+ or 5 mM Mn^2+ or 2 mM EDTA.
(§1) Radiolabeled sugar incorporation assays (25 μl, 30 minutes at 22° C.) were performed using clarified lysates (60 μg total protein) in the presence of 0.05 mM UDP-GlcUA or UDP-GlcNAc as carrier with UDP-[^3H]GlcUA or UDP-[^3H]GlcNAc (0.1 μCi/assay) (NEN Perkin Elmer, Waltham, Mass.) with various unlabeled UDP-sugars (1 mM) or no second sugar as a negative control. The reaction buffer was 50 mM Tris, pH 7.2, 5 mM MgCl2; these conditions were obtained after limited optimization trials. Certain reactions used acceptors (1 μg) to bypass de novo initiation, including HA, heparosan, or Ct polysaccharide (sonicated 10 minutes on ice to increase the number of termini).
(§2) Reactions were incubated at the indicated temperatures for the times noted, and then stopped with 2% final SDS and separated by descending paper chromatography (65:35 ethanol/1 M ammonium acetate buffer, Whatman 3MM paper). This method enabled the separation of GAG polysaccharides with greater than ^˜14 sugar units, which remain at the origin, from smaller oligomers and unincorporated nucleotide sugars that migrate down the strip. The origin of the strip was cut out and subjected to liquid scintillation counting (BIOSAFE™, RPI Corp, Mt. Prospect, Ill.).

[2] = test system: recombinant Comononas testosteroni synthase (CtTS); assay: Polymer grafting of testosteronan onto acceptors using CtTS (agarose gel, stoichiometric size control); type: biochemical, Comamonas testosteroni; details: acceptor 15 or 30 μM, monosaccharides/glycosides first extended step-wise with two UDP-sugars, Stains-all
Protocol: The recombinant Comononas testosteroni synthase was incubated with both UDP-sugars and various acceptors (note: monosaccharides or glycosides first subjected to two extension steps via CtTS enzyme before adding both UDP sugars) OR ‘no acceptor’ in reaction buffer. The reactions were then subjected to agarose gel analysis with Stains-all dye detection. From left to right, the lanes are as follows: (1) HA LoLadder standard; (2) ‘no acceptor’ (de novo synthesis); (3) p-Nitrophenyl-β-D-glucuronide (15 μM); (4) p-Nitrophenyl-β-D-glucuronide (30 μM); (5) GlcUA (15 μM); (6) GlcUA (30 μM); (7) GlcNAc (15 μM); (8) GlcNAc (30 μM); (9) AFA=GlcUA-fluorescein-GlcUA (15 μM); (10) AFA (30 μM); (11) Hep4=base de-acetylated, nitrous acid, & reduced heparosan tetrasaccharide (15 μM); and (12) Hep4 (30 μM). Size control (i.e., differences in molecular weight between 15 and 30 μM) is noted with certain acceptors.
The recombinant Comononas testosteroni synthase was incubated with both UDP-sugars and various acceptors OR ‘no acceptor’ in reaction buffer. From left to right in FIG. 21, the lanes are listed below in Table 3.
For all acceptors except Hep4 and AFA, the final acceptor was produced in situ before elongation by extending step-wise with the next two appropriate UDP-sugars. For example, GlcUA was extended first with UDP-GlcNAc, then UDP-GlcUA (making a trisaccharide) before the complete polymerization reaction components (i.e., a mixture of many equivalents of UDP-GlcUA and UDP-GlcNAc together to allow the production of long polymer chains) were added. Two different concentrations of the acceptor were added (either 15 or 30 μM as noted) to test the effect of stoichiometric size control.

[3] = test system: recombinant Comamonas testosteronan synthase (CtTS); assay: Radiolabeled sugar incorporation assay, donor sugar specificity of CtTS; type: biochemical, Comamonas testosteroni KF-1; details: unlabeled UDP-sugar 1 mM, clarified lysate, 30 minutes at 22° C.; for activity (incorporation of [3H]GlcUA) with the unlabeled UDP-sugar as second precursor: UDP-[3H]GlcUA tracer; for incorporation of [3H]GlcNAc with the unlabeled UDP-sugar as second precursor: UDP-[3H]GlcNAc tracer
Protocol: FIG. 3 graphically depicts the donor specificity of CtTS.
In order to determine the preferred hexosamine sugar donor utilized for putative GAG-like heteropolysaccharide biosynthesis, activity assays were performed with clarified lysates from recombinant bacteria expressing CtTS using two different UDP-sugars simultaneously in polymerization reactions in vitro. […] By further studying acceptor specificity and using GAG degrading enzymes that are specific for these GAGs, the nature of the polysaccharide formed by CtTS in vitro was characterized.
as §1, §2

[4] = test system: Proteus vulgaris chondroitinase ABC; assay: GAG degrading enzyme challenge: chondroitinase ABC; type: in vitro ADME
From the text: (§3) Because of this finding, it is believed that while CtTS is able to utilize heparosan as an acceptor molecule due to a hypothetical shared structural feature, this GAG is not the native substrate.

[5] = test system: Streptomyces hyalurolyticus HA lyase; assay: GAG degrading enzyme challenge: HA lyase; type: in vitro ADME
From the text: as §3

heparin lyase I = heparin lyase I (Pedobacter heparinus, UniProt Q05819); assay: GAG degrading enzyme challenge: heparin lyase I; type: in vitro ADME
From the text: as §3

[6] = test system: recombinant Comamonas testosteronan synthase (CtTS); assay: Radiolabeled sugar polymerization assay, acceptor specificity of CtTS; type: biochemical, Comamonas testosteroni KF-1; details: radiolabeled UDP-sugars; acceptor 1 μg
Protocol: FIG. 4 graphically depicts the acceptor specificity of CtTS. Extension of exogenous polysaccharide by recombinant Comamonas testosteronan synthase was measured. Activity assays were performed with radiolabeled UDP-sugars in the presence of hyaluronan, unsulfated chondroitin, heparosan or sonicated Comamonas polysaccharide.
Acceptor Specificity of CtTS: To identify the acceptor preference of CtTS, radiolabeled sugar polymerization assays were performed in the presence of various GAG acceptors. In many, but not all, GAG synthases, exogenous cognate polysaccharide will increase the signal in sugar incorporation assays by bypassing the slower de novo initiation phase (DeAngelis et al., 1999 and 2004); the elongation phase is much more rapid; thus, higher activity is observed. Typically, non-cognate GAG polymers with different glycosidic linkage patterns are very poor or non-functional acceptors for the known GAG synthases in vitro. Hyaluronan, unsulfated chondroitin and heparosan as well as polysaccharide extract from C. testosteroni were tested. Hyaluronan and heparosan tetrasaccharides were also tested for their abilities to act as acceptors. […] To confirm that CtTS is able to directly extend a heparosan acceptor so as to rule out an artifactual stabilizing or conformational effect in the radioassays, an ^125I-labeled tetrasaccharide heparosan acceptor was also tested in vitro in the presence of only UDP-GlcNAc for single sugar addition, or UDP-GlcNAc and UDP-GlcUA for polymerization.
as §1, with “Certain reactions used acceptors (1 μg) to bypass de novo initiation, including HA, heparosan, or Ct polysaccharide (sonicated 10 minutes on ice to increase the number of termini).” left out
Target sequence in this assay (as listed by the source): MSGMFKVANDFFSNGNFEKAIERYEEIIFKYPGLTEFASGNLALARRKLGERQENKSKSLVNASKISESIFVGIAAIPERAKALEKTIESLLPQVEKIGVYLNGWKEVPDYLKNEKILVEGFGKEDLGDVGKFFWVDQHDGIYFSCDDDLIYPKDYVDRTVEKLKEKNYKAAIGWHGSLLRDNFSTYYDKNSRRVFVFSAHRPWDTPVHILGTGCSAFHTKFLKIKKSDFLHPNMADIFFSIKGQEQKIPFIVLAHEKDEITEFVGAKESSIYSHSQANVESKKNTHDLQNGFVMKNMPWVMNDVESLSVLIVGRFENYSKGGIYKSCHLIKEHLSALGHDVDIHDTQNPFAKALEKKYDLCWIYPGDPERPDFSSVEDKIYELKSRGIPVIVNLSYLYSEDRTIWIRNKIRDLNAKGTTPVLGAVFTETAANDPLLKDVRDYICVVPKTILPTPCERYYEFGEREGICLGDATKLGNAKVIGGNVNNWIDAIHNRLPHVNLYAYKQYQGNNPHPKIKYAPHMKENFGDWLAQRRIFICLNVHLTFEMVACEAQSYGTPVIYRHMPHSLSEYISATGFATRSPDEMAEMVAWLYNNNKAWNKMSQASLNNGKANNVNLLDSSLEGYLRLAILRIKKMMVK

Chain of heparin lyase I (Q05819 22-384): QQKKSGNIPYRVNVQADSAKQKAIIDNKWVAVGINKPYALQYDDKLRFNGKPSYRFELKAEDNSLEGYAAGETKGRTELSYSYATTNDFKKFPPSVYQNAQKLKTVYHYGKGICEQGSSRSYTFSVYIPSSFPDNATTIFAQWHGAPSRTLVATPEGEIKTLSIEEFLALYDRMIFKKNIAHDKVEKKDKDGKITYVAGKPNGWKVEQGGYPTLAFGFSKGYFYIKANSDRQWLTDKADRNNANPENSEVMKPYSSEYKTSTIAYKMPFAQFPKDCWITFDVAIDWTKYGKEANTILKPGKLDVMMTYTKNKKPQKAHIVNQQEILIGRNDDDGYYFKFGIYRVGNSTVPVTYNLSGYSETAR

Compound: O=C(O)CN(CCN(CC(=O)O)CC(=O)O)CC(=O)O [EDTA]
- GT activity of CtTS in the presence of divalent cation or chelator [1]: eradicated the polymerization signal

Compound: CC(=O)N[C@H]1C(O)O[C@H](CO)[C@@H](O)[C@@H]1O (stereo partly shown) [GlcNAc, N-acetylglucosamine]
- stoichiometric size control of testosteronan product by acceptor [2]: did not

Compound: O=C[C@H](O)[C@@H](O)[C@H](O)[C@H](O)C(=O)O [GlcUA, glucuronic acid]
- stoichiometric size control of testosteronan product by acceptor [2]: allowed efficient size control

Compound: [Mg+2] [Mg^2+]
- GT activity of CtTS in the presence of divalent cation or chelator [1]: roughly twice as for Mn^2+

Compound: [Mn+2] [Mn^2+]
- GT activity of CtTS in the presence of divalent cation or chelator [1]: supported GT activity

Compound: CC(=O)N[C@H]1[C@@H](OP(=O)(O)OP(=O)(O)OC[C@H]2O[C@@H](n3ccc(=O)[nH]c3=O)[C@H](O)[C@@H]2O)O[C@H](CO)[C@H](O)[C@@H]1O [UDP-GalNAc]
- activity (incorporation of [3H]GlcUA) with the unlabeled UDP-sugar as second precursor [3]: not

Compound: O=C(O)[C@H]1O[C@H](OP(=O)(O)OP(=O)(O)OC[C@H]2O[C@@H](n3ccc(=O)[nH]c3=O)[C@H](O)[C@@H]2O)[C@H](O)[C@@H](O)[C@H]1O [UDP-GalUA]
- incorporation of [3H]GlcNAc with the unlabeled UDP-sugar as second precursor [3]: only the reactions containing UDP-GlcUA showed significant incorporation

Compound: CC(=O)N[C@H]1[C@@H](OP(=O)(O)OP(=O)(O)OC[C@H]2O[C@@H](n3ccc(=O)[nH]c3=O)[C@H](O)[C@@H]2O)O[C@H](CO)[C@@H](O)[C@@H]1O [UDP-GlcNAc]
- activity (incorporation of [3H]GlcUA) with the unlabeled UDP-sugar as second precursor [3]: Significant activity

Compound: O=C(O)[C@H]1O[C@H](OP(=O)(O)OP(=O)(O)OC[C@H]2O[C@@H](n3ccc(=O)[nH]c3=O)[C@H](O)[C@@H]2O)[C@H](O)[C@@H](O)[C@@H]1O [UDP-GlcUA]
- incorporation of [3H]GlcNAc with the unlabeled UDP-sugar as second precursor [3]: significant incorporation

Compound: O=C(O)[C@@H]1O[C@@H](OP(=O)(O)OP(=O)(O)OC[C@H]2O[C@@H](n3ccc(=O)[nH]c3=O)[C@H](O)[C@@H]2O)[C@H](O)[C@@H](O)[C@@H]1O [UDP-IdoUA]
- incorporation of [3H]GlcNAc with the unlabeled UDP-sugar as second precursor [3]: only the reactions containing UDP-GlcUA showed significant incorporation

Compound: O=C(O)[C@H]1O[C@@H](Oc2ccc([N+](=O)[O-])cc2)[C@H](O)[C@@H](O)[C@@H]1O [p-Nitrophenyl-D-glucuronide, p-Nitrophenyl-β-D-glucuronide]
- stoichiometric size control of testosteronan product by acceptor [2]: allowed efficient size control

Compound: GlcUA-fluorescein-GlcUA [AFA]
- stoichiometric size control of testosteronan product by acceptor [2]: efficient size control

Compound: [-4-D-GlcUA-α1,4-D-GlcNAc-α1-]n [synthetic polysaccharide]
- sensitivity to degradation by Proteus vulgaris chondroitinase ABC [4]: insensitive to degradation
- sensitivity to degradation by Streptomyces hyalurolyticus HA lyase [5]: insensitive to degradation
- sensitivity to degradation by heparin lyase I (heparin lyase I): insensitive to degradation

Compound: [-4-D-GlcUA-α1,4-D-GlcNAc-α1-]n [testosteronan]
- sensitivity to degradation by heparin lyase I (heparin lyase I): did not digest

Compound: [-4-D-GlcUA-β1,3-D-GlcNAc-β1-]n [hyaluronan]
- use of exogenous GAG polysaccharide as acceptor by CtTS [6]: not

Compound: [-4-D-GlcUA-β1,4-D-GlcNAc-α1-]n [heparosan]
- use of exogenous GAG polysaccharide as acceptor by CtTS [6]: able to use; also recorded: capable of utilizing

Compound: chondroitin
- use of exogenous GAG polysaccharide as acceptor by CtTS [6]: not
